Assay results: ChEMBL document CHEMBL5512674, “Novel Acyl Thiourea-Based Hydrophobic Tagging Degraders Exert Potent Anti-Influenza Activity through Two Distinct Endonuclease Polymerase Acidic-Targeted Degradation Pathways” (J Med Chem, 2024)
Active and inactive are the calls of the source. The calls are words filed in the database; no cut-off is given here.

Columns and labels:
[1] = tested on: Influenza A virus; test: Anti-influenza activity against Influenza A virus A/WSN/33(H1N1) infected in HEK293T cells assessed as reduction in virus-induced cytopathic effect incubated for 48 hrs by CCK-8 assay; format: functional, organism-based; details: HEK-293T
[2] = Half life in dog liver microsomes preincubated for 5 mins followed by NADPH addition and measured for 45 mins by LC-MS analysis; format: ADME, Canis lupus familiaris, Microsome; details: time 50 min
[3] = Intrinsic clearance in dog liver microsomes preincubated for 5 mins followed by NADPH addition and measured for 45 mins by LC-MS analysis; format: ADME, Canis lupus familiaris, Microsome; details: time 50 min, read-out: CLH
[4] = Hepatic clearance in mouse liver microsomes preincubated for 5 mins followed by NADPH addition and measured for 45 mins by LC-MS analysis; format: ADME, Microsome; details: time 50 min
[5] = Hepatic clearance in dog liver microsomes preincubated for 5 mins followed by NADPH addition and measured for 45 mins by LC-MS analysis; format: ADME, Canis lupus familiaris, Microsome; details: time 50 min
[6] = Hepatic clearance in human liver microsomes preincubated for 5 mins followed by NADPH addition and measured for 45 mins by LC-MS analysis; format: ADME, Microsome; details: time 50 min
[7] = Hepatic extraction ratio in dog liver microsomes preincubated for 5 mins followed by NADPH addition and measured for 45 mins by LC-MS analysis; format: ADME, Canis lupus familiaris, Microsome; details: time 50 min, read-out: ERH
[8] = Hepatic extraction ratio in human liver microsomes preincubated for 5 mins followed by NADPH addition and measured for 45 mins by LC-MS analysis; format: ADME, Microsome; details: time 50 min, read-out: ERH
[9] = Stability in human plasma assessed as compound remaining by LC-MS/MS analysis; format: ADME, cell-free
[10] = Stability in human plasma assessed as compound remaining measured after 5 mins by LC-MS/MS analysis; format: ADME, cell-free; details: read-out: Stability
[11] = Stability in human plasma assessed as compound remaining measured after 15 mins by LC-MS/MS analysis; format: ADME, cell-free; details: read-out: Stability
[12] = Stability in human plasma assessed as compound remaining measured after 30 mins by LC-MS/MS analysis; format: ADME, cell-free; details: read-out: Stability
[13] = Stability in human plasma assessed as compound remaining measured after 60 mins by LC-MS/MS analysis; format: ADME, cell-free; details: read-out: Stability
[14] = Stability in human plasma assessed as compound remaining measured after 120 mins by LC-MS/MS analysis; format: ADME, cell-free; details: read-out: Stability
[15] = target: T1, von Hippel-Lindau disease tumor suppressor/Polymerase basic protein 1 (Influenza A virus (strain A/Puerto Rico/8/1934 H1N1)) (UniProt P03431+P40337); test: PROTAC activity at Influenza A virus A/WSN/33(H1N1) flag tagged Polymerase basic protein 1/VHL (unknown origin) expressed in HEK293T cells assessed as degradation of PB1 expression at 1 ug/ml incubated for 24 hrs by Western blotting analysis; format: cell-based; details: dose 1.0 µg/ml
[16] = tested on: Influenza A virus; test: Anti-influenza activity against Influenza A virus A/WSN/33(H1N1) infected in MDCK cells assessed as downregulation of nucleoprotein expression incubated for 24 hrs by Western blotting analysis; format: functional, organism-based
[17] = target: T1, von Hippel-Lindau disease tumor suppressor/Polymerase basic protein 1 (Influenza A virus (strain A/Puerto Rico/8/1934 H1N1)); test: PROTAC activity at Influenza A virus A/WSN/33(H1N1) flag tagged Polymerase basic protein 1/VHL (unknown origin) expressed in HEK293T cells assessed as degradation of PB1 expression at 10 ug/ml incubated for 24 hrs by Western blotting analysis; format: cell-based; details: dose 10.0 µg/ml
[18] = target: von Hippel-Lindau disease tumor suppressor/Polymerase basic protein 2 (Influenza A virus (strain A/Puerto Rico/8/1934 H1N1)) (UniProt P40337+P03428); test: PROTAC activity at Influenza A virus A/WSN/33(H1N1) flag tagged Polymerase basic protein 2/VHL (unknown origin) expressed in HEK293T cells assessed as degradation of PB2 expression at 1 ug/ml incubated for 24 hrs by Western blotting analysis; format: cell-based; details: dose 1.0 µg/ml
[19] = target: T2, von Hippel-Lindau disease tumor suppressor/Polymerase acidic protein (Influenza A virus (A/Puerto Rico/8/1934(H1N1))) (UniProt P03433+P40337); test: PROTAC activity at Influenza A virus A/WSN/33(H1N1) flag tagged Polymerase acidic protein/VHL (unknown origin) expressed in HEK293T cells assessed as degradation of PA expression at 10 uM incubated for 24 hrs by Western blotting analysis; format: cell-based
[20] = target: T2, von Hippel-Lindau disease tumor suppressor/Polymerase acidic protein (Influenza A virus (A/Puerto Rico/8/1934(H1N1))); test: PROTAC activity at Influenza A virus A/WSN/33(H1N1) flag tagged Polymerase acidic protein/VHL (unknown origin) expressed in HEK293T cells assessed as degradation of PA expression at 0.02 to 10 uM incubated for 24 hrs by Western blotting analysis; format: cell-based; details: dose 0.02-10 µM
[21] = target: T2, von Hippel-Lindau disease tumor suppressor/Polymerase acidic protein (Influenza A virus (A/Puerto Rico/8/1934(H1N1))); test: PROTAC activity at Influenza A virus A/WSN/33(H1N1) flag tagged Polymerase acidic protein/VHL (unknown origin) expressed in HEK293T cells assessed as degradation of PA expression at 10 uM by Western blotting analysis; format: cell-based; details: TDE = time-dependent effect
[22] = target: T2, von Hippel-Lindau disease tumor suppressor/Polymerase acidic protein (Influenza A virus (A/Puerto Rico/8/1934(H1N1))); test: PROTAC activity at Influenza A virus A/WSN/33(H1N1) flag tagged Polymerase acidic protein/VHL (unknown origin) expressed in HEK293T cells assessed as degradation of PA expression at 10 uM incubated for 24 to 48 hrs by Western blotting analysis; format: cell-based; details: time 24-48 hrs
[23] = target: T2, von Hippel-Lindau disease tumor suppressor/Polymerase acidic protein (Influenza A virus (A/Puerto Rico/8/1934(H1N1))); test: PROTAC activity at Influenza A virus A/WSN/33(H1N1) flag tagged Polymerase acidic protein/VHL (unknown origin) expressed in HEK293T cells assessed as degradation of PA expression at 10 uM incubated for 8 hrs by Western blotting analysis; format: cell-based
[24] = target: T2, von Hippel-Lindau disease tumor suppressor/Polymerase acidic protein (Influenza A virus (A/Puerto Rico/8/1934(H1N1))); test: PROTAC activity at Influenza A virus A/WSN/33(H1N1) flag tagged Polymerase acidic protein/VHL (unknown origin) expressed in HEK293T cells assessed as degradation of PA expression at 5 uM incubated for 24 hrs in presence of dipeptide RA by Western blotting analysis; format: cell-based
[25] = target: T2, von Hippel-Lindau disease tumor suppressor/Polymerase acidic protein (Influenza A virus (A/Puerto Rico/8/1934(H1N1))); test: PROTAC activity at Influenza A virus A/WSN/33(H1N1) flag tagged Polymerase acidic protein/VHL (unknown origin) expressed in HEK293T cells assessed as degradation of PA expression at 5 uM incubated for 24 hrs in presence of proteasome inhibitor MG-132 by Western blotting analysis; format: cell-based
[26] = target: T2, von Hippel-Lindau disease tumor suppressor/Polymerase acidic protein (Influenza A virus (A/Puerto Rico/8/1934(H1N1))); test: PROTAC activity at Influenza A virus A/WSN/33(H1N1) flag tagged Polymerase acidic protein/VHL (unknown origin) expressed in HEK293T cells assessed as degradation of PA expression at 5 uM incubated for 24 hrs in presence of chloroquine by Western blotting analysis; format: cell-based
[27] = Binding affinity to Influenza A virus A/WSN/33(H1N1) flag tagged Polymerase acidic protein assessed as dissociation constant incubated for 48 hrs by microscale thermophoresis assay; details: hek293t
[28] = tested on: Influenza A virus; test: Anti-influenza activity against Influenza A virus A/WSN/33(H1N1) infected in MDCK cells assessed as downregulation of nucleoprotein expression at 100 nM incubated for 24 hrs by Western blotting analysis relative to control; format: functional
[29] = Cytotoxicity against dog MDCK cells assessed as reduction in cell viability incubated for 48 hrs by CCK-8 assay; format: toxicity, cell-based, Canis lupus familiaris
[30] = tested on: Influenza A virus; test: Anti-influenza activity against Influenza A virus A/PR/8/34 (H1N1) infected in MDCK cells assessed as inhibition of viral growth at 1 uM incubated for 48 hrs by luciferase assay relative to control; format: functional
[31] = tested on: Enterovirus; test: Antiviral activity against Enterovirus 71 infected in RD cells assessed as inhibition of viral replication incubated for 24 hrs by CCK-8 assay; format: functional, organism-based
[32] = target: Voltage-gated inwardly rectifying potassium channel KCNH2 (Homo sapiens, UniProt Q12809); test: Inhibition of hERG; format: toxicity
Chain of Voltage-gated inwardly rectifying potassium channel KCNH2 (Q12809 whole entry): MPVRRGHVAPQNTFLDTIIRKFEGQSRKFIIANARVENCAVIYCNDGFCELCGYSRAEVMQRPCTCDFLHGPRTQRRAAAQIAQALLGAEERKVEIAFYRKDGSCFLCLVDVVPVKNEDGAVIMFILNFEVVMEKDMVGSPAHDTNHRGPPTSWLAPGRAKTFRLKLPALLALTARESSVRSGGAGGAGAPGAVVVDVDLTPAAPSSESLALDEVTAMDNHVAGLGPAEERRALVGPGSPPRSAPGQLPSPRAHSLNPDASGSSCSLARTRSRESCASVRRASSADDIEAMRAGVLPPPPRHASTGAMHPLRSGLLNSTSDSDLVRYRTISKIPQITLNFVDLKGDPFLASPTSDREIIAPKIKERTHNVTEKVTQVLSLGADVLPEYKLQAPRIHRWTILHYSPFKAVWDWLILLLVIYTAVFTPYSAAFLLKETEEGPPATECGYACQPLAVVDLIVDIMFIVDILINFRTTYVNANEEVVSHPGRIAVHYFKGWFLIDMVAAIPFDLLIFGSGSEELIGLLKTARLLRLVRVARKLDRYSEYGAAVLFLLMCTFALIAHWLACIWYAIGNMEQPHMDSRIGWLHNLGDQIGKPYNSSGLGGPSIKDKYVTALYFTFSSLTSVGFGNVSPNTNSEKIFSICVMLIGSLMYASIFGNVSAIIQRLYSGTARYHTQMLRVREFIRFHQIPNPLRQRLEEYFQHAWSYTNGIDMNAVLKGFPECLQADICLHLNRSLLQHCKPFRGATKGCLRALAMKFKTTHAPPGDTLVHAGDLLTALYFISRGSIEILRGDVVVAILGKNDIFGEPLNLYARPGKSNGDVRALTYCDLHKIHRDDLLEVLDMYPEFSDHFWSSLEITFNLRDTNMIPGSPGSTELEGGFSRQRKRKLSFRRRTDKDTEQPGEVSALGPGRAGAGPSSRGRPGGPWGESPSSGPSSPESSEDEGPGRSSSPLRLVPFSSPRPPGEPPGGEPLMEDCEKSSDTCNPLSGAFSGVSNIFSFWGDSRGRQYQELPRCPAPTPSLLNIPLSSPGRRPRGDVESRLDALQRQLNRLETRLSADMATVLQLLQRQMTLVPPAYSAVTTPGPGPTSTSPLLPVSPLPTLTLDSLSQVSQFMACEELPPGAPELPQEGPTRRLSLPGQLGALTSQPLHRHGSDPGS

T1 sequence (P03431 whole entry, looked up): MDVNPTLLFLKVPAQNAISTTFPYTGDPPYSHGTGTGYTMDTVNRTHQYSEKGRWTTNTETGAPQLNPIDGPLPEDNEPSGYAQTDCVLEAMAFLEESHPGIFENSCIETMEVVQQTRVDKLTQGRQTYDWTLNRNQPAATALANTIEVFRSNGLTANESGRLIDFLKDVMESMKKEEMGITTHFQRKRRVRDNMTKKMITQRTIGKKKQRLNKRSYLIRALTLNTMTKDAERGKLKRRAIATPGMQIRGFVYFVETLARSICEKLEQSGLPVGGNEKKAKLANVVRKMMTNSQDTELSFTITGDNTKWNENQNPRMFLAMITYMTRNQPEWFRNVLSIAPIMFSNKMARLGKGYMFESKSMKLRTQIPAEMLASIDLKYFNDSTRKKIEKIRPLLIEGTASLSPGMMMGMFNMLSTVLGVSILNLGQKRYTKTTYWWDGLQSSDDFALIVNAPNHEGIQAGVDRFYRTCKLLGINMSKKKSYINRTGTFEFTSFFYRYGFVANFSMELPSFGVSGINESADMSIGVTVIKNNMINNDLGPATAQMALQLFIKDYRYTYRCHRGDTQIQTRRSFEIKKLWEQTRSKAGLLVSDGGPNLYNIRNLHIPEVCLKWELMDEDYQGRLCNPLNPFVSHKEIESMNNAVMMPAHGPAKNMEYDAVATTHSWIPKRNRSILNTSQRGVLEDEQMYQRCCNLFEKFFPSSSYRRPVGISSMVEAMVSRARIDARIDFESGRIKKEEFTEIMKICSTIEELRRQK
T1 sequence (P40337 whole entry, looked up): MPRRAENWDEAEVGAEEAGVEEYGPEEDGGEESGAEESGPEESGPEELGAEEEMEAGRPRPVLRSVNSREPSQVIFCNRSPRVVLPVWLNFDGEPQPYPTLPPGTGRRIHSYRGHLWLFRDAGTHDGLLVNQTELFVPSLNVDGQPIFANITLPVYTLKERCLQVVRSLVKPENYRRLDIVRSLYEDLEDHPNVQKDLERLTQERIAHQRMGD
Chain of von Hippel-Lindau disease tumor suppressor/Polymerase basic protein 2 (Influenza A virus (strain A/Puerto Rico/8/1934 H1N1)) (P03428 whole entry, looked up): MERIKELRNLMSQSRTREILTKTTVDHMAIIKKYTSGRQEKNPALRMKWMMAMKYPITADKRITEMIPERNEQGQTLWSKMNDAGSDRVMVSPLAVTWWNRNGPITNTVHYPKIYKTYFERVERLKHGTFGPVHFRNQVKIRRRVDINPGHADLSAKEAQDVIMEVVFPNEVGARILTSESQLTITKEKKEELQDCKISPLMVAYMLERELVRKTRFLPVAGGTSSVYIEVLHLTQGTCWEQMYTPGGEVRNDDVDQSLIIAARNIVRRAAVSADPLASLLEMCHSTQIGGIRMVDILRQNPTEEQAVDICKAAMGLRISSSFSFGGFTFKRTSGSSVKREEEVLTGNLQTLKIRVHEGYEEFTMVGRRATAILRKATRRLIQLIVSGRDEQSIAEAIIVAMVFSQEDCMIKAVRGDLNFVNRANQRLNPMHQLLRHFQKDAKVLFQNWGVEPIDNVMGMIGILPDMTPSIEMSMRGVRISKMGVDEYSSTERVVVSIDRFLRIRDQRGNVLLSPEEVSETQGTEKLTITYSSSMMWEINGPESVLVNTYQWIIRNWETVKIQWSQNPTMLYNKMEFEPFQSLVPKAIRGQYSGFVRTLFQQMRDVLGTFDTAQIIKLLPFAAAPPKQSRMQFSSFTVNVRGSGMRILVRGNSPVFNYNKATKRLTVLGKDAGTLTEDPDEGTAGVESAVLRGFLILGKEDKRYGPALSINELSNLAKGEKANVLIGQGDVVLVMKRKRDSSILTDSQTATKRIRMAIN
Chain of von Hippel-Lindau disease tumor suppressor/Polymerase basic protein 2 (Influenza A virus (strain A/Puerto Rico/8/1934 H1N1)) (P40337 whole entry, looked up): as the sequence (P40337 whole entry, looked up) above

With `CC(C)(C)OC(=O)NCCCC[C@H](NC(=O)OC(C)(C)C)C(=O)NCCCCCCCC(=O)Nc1ccc(NC(=S)NC(=O)c2ccc(C(C)(C)C)cc2)cc1` as the molecule, how does the EC50 [1] read?
The EC50 was 15 nM.

And the half-life [2]?
Its half-life is 19.6 min.

And the CLint scaled [3]?
The CLint scaled was 177 mL/min/kg.

And the CLhep predicted [4]?
The CLhep predicted was 58.8 mL/min/kg.

And the CLhep predicted [5]?
Its CLhep predicted is 26.3 mL/min/kg.

And the CLhep predicted [6]?
Its CLhep predicted is 18 mL/min/kg.

What about the hepatic extraction ratio at 0.75 h [7] of the same molecule?
Its hepatic extraction ratio at 0.75 h is 0.851.

What about the hepatic extraction ratio at 0.75 h [8] of the same molecule?
The hepatic extraction ratio at 0.75 h was 0.588.

What about the Stability [9] of the same molecule?
Its Stability is 100%.

What about the remaining at 5 min [10] of the same molecule?
Its remaining at 5 min is 96.8%.

What about the remaining at 0.25 h [11] of the same molecule?
Its remaining at 0.25 h is 109%.

And the remaining at 0.5 h [12]?
The remaining at 0.5 h was 108%.

And the remaining at 1 h [13]?
The remaining at 1 h was 96.9%.

And the remaining at 2 h [14]?
Its remaining at 2 h is 72%.

And the Activity [15]?
Its Activity is “inactive”.

And the Activity [16]?
The Activity was “Dose-Dependent Effect”.

What about the Activity [17] of the same molecule?
The Activity was “inactive”.

And the Activity [18]?
The Activity was “inactive”.

What about the Activity [19] of the same molecule?
The Activity was “Active”.

And the Activity [20]?
The Activity was “Active”.

And the Activity [21]?
Its Activity is “Tde”.

And the Activity [22]?
Its Activity is “Active”.

And the Activity [23]?
Its Activity is “Active”.

And the Activity [24]?
Its Activity is “inactive”.

And the Activity [25]?
Its Activity is “inactive”.

And the Activity [26]?
Its Activity is “inactive”.

What about the Kd [27] of the same molecule?
Its Kd is 720 nM.

What about the Activity [28] of the same molecule?
The Activity was 35%.

And the CC50 at 48 h [29]?
Its CC50 at 48 h is > 200000 nM.

What about the inhibition at 1 µM [30] of the same molecule?
The inhibition at 1 µM was 96%.

And the Activity [31]?
Its Activity is “Active”.

And the “inhibition (INH)” value [32]?
Its value is “Not Active”.
